# According to patent US20260053932A1, “COMPOUNDS AND METHODS FOR THE TARGETED DEGRADATION OF ANDROGEN RECEPTOR AND ASSOCIATED METHODS OF USE” (Arvinas Operations, Inc., priority 2020, published 2026):
# System: androgen receptor (AR) in LNCaP and/or VCaP cells
# Assay: Androgen Receptor ELISA assay (AR degradation)
# Format: cell-based
# Settings: LNCaP and/or VCaP cells; 5 hours incubation; media with R1881; read-out: DC50 Code* (degradation of AR ELISA)
# Protocol: Androgen Receptor ELISA Assay. […] The protocols used with VCaP cells are described below.
# The cells were grown for a minimum of 3 days.
# (2)(i) A 10× stock plate in media was made; (ii) 2.5 μL of the 1000× stock was transferred to a new 10× stock plate (use 12 channel pipet, start at A (DMSO control) work thru H. When 247.5 µL of media was added to this plate, it served as a 10× stock; (iii) made media+1 nM R1881 for making 10× stock plate; (iv) added 247.5 μL of media with 1 nM R1881 to each well of the 10× stock plate, mix.
# Then 22 μL of 10× stock was added to cells and incubated for 5 hours. […] Media was aspirated, and 100 μL 1× cell lysis buffer/well was added. The cells were placed on a shaker located in a cold room for 10 minutes and shaken at speed 7. The lysate mixture was mix and 20 μL transferred to 100 μl of Diluent in ELISA plate (0.15 μg/ml-[…]). The lysate-diluent mixture was store at 4° C. overnight on a shaker located in a cold room at speed 5 (gentle swirl).
# The lysate-diluent mixture was shaken for 30 minutes at 37° C. The mouse AR antibody, anti-mouse antibody, TMB, and STOP solution were allowed to come to room temperature. The 1×ELISA buffer included in kit was made and loaded in reservoir. Media from the plate was discarded, the ELISA plate was tapped hard on paper towel, and washed 4×200 μl ELISA wash buffer using a plate washer for the first three washes and an eight channel aspirator for the fourth wash to more thoroughly aspirate the solution.
# Next, 100 μL/well of mouse AR detection Ab was added; the plate was covered and shaken at 37° C. for 1 hour; media was discarded from the plates, the plates tapped on a paper towel and washed four times with 200 μL ELISA wash buffer with a plate washer for the first three washes and an eight channel aspirator for the fourth wash; 100 μL/well of anti-mouse—HRP conjugated Ab (comes with the kit) was added; the plates was cover and shaken at 37° C. for 30 minutes; the TMB reagent was allowed to come to room temperature; the media from the plate was discarded, the plates tapped on paper towel, and washed four times with 200 μL ELISA wash buffer with a plate washer for the first three washes and an eight channel aspirator for the fourth wash; plates were tapped on paper towel; 100 μL TMB was added to each well and the plate shaken for 2 minutes—while watching color. STOP solution (100 μL) was added when light blue color developed.
# Data was analyzed and plotted using GraphPad Prism software. Exemplary compounds of Tables 1A, 1B, and 1C were assayed and the data shown below in Tables 2A, 2B, and 2C. DC50 (nM) categories (degradation of AR ELISA in LNCaP and/or VCaP cells) of Tables 2A, 2B, and 2C are as follows: A<1 nM; 1≤B<10 nM; 10≤C<100 nM; D≥100 nM. Dmax (%) categories (degradation of AR ELISA in LNCaP and/or VCaP cells) of Table 2 are as follows: A≥70; 50≤B<70; C<50
row,DC50,Structure (SMILES)
1,< 1 nM,"N#Cc1ccc(O[C@H]2CC[C@H](NC(=O)c3cnc(N4CCC(CN(CC5COC5)[C@H]5C[C@H](Oc6ccc7c(c6)C(=O)N(C6CCC(=O)NC6=O)C7=O)C5)CC4)cn3)CC2)cc1Cl (stereo partly shown) [Compound 53, N-((1r,4r)-4-(3-chloro-4-cyanophenoxy)cyclohexyl)-5-(4-((((1r,3r)-3-((2-(2,6-dioxopiperidin-3-yl)-1,3-dioxoisoindolin-5-yl)oxy)cyclobutyl) (oxetan-3-ylmethyl)amino)methyl)piperidin-1-yl)pyrazine-2-carboxamide]"
2,< 1 nM,"COc1cc(O[C@H]2C[C@H](N(CC3CCN(c4cnc(C(=O)N[C@H]5CC[C@H](Oc6ccc(C#N)c(Cl)c6)CC5)cn4)CC3)C(C)C)C2)cc2c1C(=O)N(C1CCC(=O)NC1=O)C2=O (stereo partly shown) [Compound 14, N-((1r,4r)-4-(3-chloro-4-cyanophenoxy)cyclohexyl)-5-(4-((((1r,3r)-3-((2-(2,6-dioxopiperidin-3-yl)-7-methoxy-1,3-dioxoisoindolin-5-yl)oxy)cyclobutyl) (isopropyl)amino)methyl)piperidin-1-yl)pyrazine-2-carboxamide]"
3,< 1 nM,"COc1cc(O[C@H]2CC[C@H](NC(=O)c3cnc(N4CCC(CN(C)[C@H]5C[C@H](Oc6ccc7c(c6)C(=O)N(C6CCC(=O)NC6=O)C7=O)C5)CC4)cn3)CC2)ccc1C#N (stereo partly shown) [Compound 39, N-((1r,4r)-4-(4-cyano-3-methoxyphenoxy)cyclohexyl)-5-(4-((((1r,3r)-3-((2-(2,6-dioxopiperidin-3-yl)-1,3-dioxoisoindolin-5-yl)oxy)cyclobutyl) (methyl)amino)methyl)piperidin-1-yl)pyrazine-2-carboxamide]"
4,> 100 nM,"COc1cc(O[C@H]2C[C@H](N(CC3CCN(c4ncc(C(=O)N[C@H]5CC[C@@H](Oc6cc(C)c(C#N)c(C)c6)C5)cn4)CC3)C(C)C)C2)cc2c1C(=O)N(C1CCC(=O)NC1=O)C2=O (stereo partly drawn) [Compound 9, N-((1S,3R)-3-(4-cyano-3,5-dimethylphenoxy)cyclopentyl)-2-(4-((((1r,3S)-3-((2-(2,6-dioxopiperidin-3-yl)-7-methoxy-1,3-dioxoisoindolin-5-yl)oxy)cyclobutyl) (isopropyl)amino)methyl)piperidin-1-yl)pyrimidine-5-carboxamide]"
5,< 1 nM,"CC(C)N(CC1CCN(c2cnc(C(=O)N[C@H]3CC[C@H](Oc4ccc(C#N)c(Cl)c4)CC3)cn2)CC1)[C@H]1C[C@H](Oc2cc(F)c3c(c2)C(=O)N(C2CCC(=O)NC2=O)C3=O)C1 (stereo partly shown) [Compound 42, N-((1r,4r)-4-(3-chloro-4-cyanophenoxy)cyclohexyl)-5-(4-((((1r,3r)-3-((2-(2,6-dioxopiperidin-3-yl)-7-fluoro-1,3-dioxoisoindolin-5-yl)oxy)cyclobutyl) (isopropyl)amino)methyl)piperidin-1-yl)pyrazine-2-carboxamide]"
6,> 100 nM,"CC(C)N(CC1CCN(c2cnc(C(=O)N[C@H]3CC[C@H](Oc4ccc(C#N)c(Cl)c4)CC3)cn2)CC1)[C@H]1C[C@H](Oc2ccc3c(c2)C(=O)N(C2CCC(=O)NC2=O)C32CC2)C1 (stereo partly shown) [Compound 73, N-((1r,4r)-4-(3-chloro-4-cyanophenoxy)cyclohexyl)-5-(4-((((1r,3r)-3-((2′-(2,6-dioxopiperidin-3-yl)-3′-oxospiro[cyclopropane-1,1′-isoindolin]-5′-yl)oxy)cyclobutyl) (isopropyl)amino)methyl)piperidin-1-yl)pyrazine-2-carboxamide]"

# Same assay, conditions: degradation of AR ELISA in LNCaP and/or VCaP cells; Table 2C; read-out: DC50 Code*
row,DC50,Structure (SMILES)
1,< 1 nM,"Cc1cc(O[C@H]2C(C)(C)[C@H](NC(=O)c3cnc(N4CCC(CN(CCO)[C@H]5C[C@H](Oc6ccc7c(c6)C(=O)N(C6CCC(=O)NC6=O)C7=O)C5)CC4)cn3)C2(C)C)cc(C)c1C#N (mixture of isomers) [compound 229, rac-N-((1r,3r)-3-(4-cyano-3,5-dimethylphenoxy)-2,2,4,4-tetramethylcyclobutyl)-5-(4-((((1r,3r)-3-((2-(2,6-dioxopiperidin-3-yl)-1,3-dioxoisoindolin-5-yl)oxy)cyclobutyl)(2-hydroxyethyl)amino)methyl)piperidin-1-yl)pyrazine-2-carboxamide]"
2,< 1 nM,"Cc1cc(O[C@H]2C(C)(C)[C@H](NC(=O)c3cnc(N4CC(CN[C@H]5C[C@H](Oc6ccc7c(c6)C(=O)N(C6CCC(=O)NC6=O)C7=O)C5)C4)nc3)C2(C)C)cc(C)c1C#N (stereo partly shown) [compound 82, N-((1r,3r)-3-(4-cyano-3,5-dimethylphenoxy)-2,2,4,4-tetramethylcyclobutyl)-2-(3-((((1r,3r)-3-((2-(2,6-dioxopiperidin-3-yl)-1,3-dioxoisoindolin-5-yl)oxy)cyclobutyl)amino)methyl)azetidin-1-yl)pyrimidine-5-carboxamide]"
3,< 1 nM,"COCCN(CC1CCN(c2ccc(C(=O)N[C@H]3C(C)(C)[C@H](Oc4cc(C)c(C#N)c(C)c4)C3(C)C)cc2)CC1)[C@H]1C[C@H](Oc2cc3c(cc2OC)C(=O)N(C2CCC(=O)NC2=O)C3=O)C1 (mixture of isomers) [compound 170, rac-N-((1r,3r)-3-(4-cyano-3,5-dimethylphenoxy)-2,2,4,4-tetramethylcyclobutyl)-4-(4-((((1r,3r)-3-((2-(2,6-dioxopiperidin-3-yl)-6-methoxy-1,3-dioxoisoindolin-5-yl)oxy)cyclobutyl)(2-methoxyethyl)amino)methyl)piperidin-1-yl)benzamide]"
4,< 1 nM,"COc1cc(O[C@H]2C[C@H](N(C)CC3CCN(c4ccc(C(=O)N[C@H]5C(C)(C)[C@H](Oc6cc(C)c(C#N)c(C)c6)C5(C)C)cc4)CC3)C2)cc2c1C(=O)N(C1CCC(=O)NC1=O)C2=O (mixture of isomers) [compound 191, rac-N-((1r,3r)-3-(4-cyano-3,5-dimethylphenoxy)-2,2,4,4-tetramethylcyclobutyl)-4-(4-((((1r,3r)-3-((2-(2,6-dioxopiperidin-3-yl)-7-methoxy-1,3-dioxoisoindolin-5-yl)oxy)cyclobutyl) (methyl)amino)methyl)piperidin-1-yl)benzamide]"
5,< 1 nM,"Cc1cc(O[C@H]2C(C)(C)[C@H](NC(=O)c3ccc(N4CCC(CN5CCC[C@H]5COc5ccc6c(c5)C(=O)N(C5CCC(=O)NC5=O)C6=O)CC4)cc3)C2(C)C)cc(C)c1C#N (stereo partly drawn) [compound 172, N-((1r,3S)-3-(4-cyano-3,5-dimethylphenoxy)-2,2,4,4-tetramethylcyclobutyl)-4-(4-(((2S)-2-(((2-(2,6-dioxopiperidin-3-yl)-1,3-dioxoisoindolin-5-yl)oxy)methyl)pyrrolidin-1-yl)methyl)piperidin-1-yl)benzamide]"
6,< 1 nM,"Cc1cc(O[C@H]2C(C)(C)[C@H](NC(=O)c3ccc(N4CCC(CN(C(C)C)[C@H]5C[C@H](Oc6ccc7c(c6)C(=O)N([C@H]6CCC(=O)NC6=O)C7=O)C5)CC4)cc3)C2(C)C)cc(C)c1C#N [compound 205, N-((1r,3r)-3-(4-cyano-3,5-dimethylphenoxy)-2,2,4,4-tetramethylcyclobutyl)-4-(4-((((1S,3r)-3-((2-((S)-2,6-dioxopiperidin-3-yl)-1,3-dioxoisoindolin-5-yl)oxy)cyclobutyl) (isopropyl)amino)methyl)piperidin-1-yl)benzamide]"

# Same assay, conditions: degradation of AR ELISA in LNCaP and/or VCaP cells; read-out: DC50 Code*
row,DC50,Structure (SMILES)
1,1 to 10 nM,"COc1cc(O[C@H]2C(C)(C)[C@H](NC(=O)c3cnc(N4CCC(CN(CC[S+]([O-])CC5(C)COC5)[C@H]5C[C@H](Oc6ccc7c(c6)C(=O)N(C6CCC(=O)NC6=O)C7=O)C5)CC4)cn3)C2(C)C)ccc1C#N (mixture of isomers) [compound 243, rac-N-((1r,3r)-3-(4-cyano-3-methoxyphenoxy)-2,2,4,4-tetramethylcyclobutyl)-5-(4-((((1r,3r)-3-((2-(2,6-dioxopiperidin-3-yl)-1,3-dioxoisoindolin-5-yl)oxy)cyclobutyl)(2-(((3-methyloxetan-3-yl)methyl)sulfinyl)ethyl)amino)methyl)piperidin-1-yl)pyrazine-2-carboxamide]"
